Measured values reported in patent US20160168724A1, “POLYVINYLBUTYRAL COATING CONTAINING THIOL CORROSION INHIBITORS” (The Boeing Company, priority 2014, published 2016).

Test: Linear sweep voltammetry with rotating disc electrode, inhibitors in electrolyte solution
Conditions: for Current (A) @ −800 mV: 10 ppm inhibitor solution in 5% NaCl-PBS pH 7, copper rotating disc electrode 1000 rpm, LSV; for IE (inhibitor efficiency, Equation 1): 10 ppm inhibitor solution, from current at -800 mV versus blank
Description: Linear sweep voltammetry (LSV) and chronoamperometry were used to evaluate the performance of the thio-containing corrosion inhibitors as electroactive cathodic-thio compounds. The LSV experiments were performed with a rotating disc electrode (RDE). The rotating disc electrode technique provides certain benefits in measurement sensitivity because the technique indicates current at steady state with a kinetic flow over the electrode rather than a static measurement in solution (FIG. 1).
Inhibitor performance was measured based on the ability of the compound to prevent the oxygen reduction reaction in electrolyte using a rotating disc electrode. If current values were closer to zero then the inhibitor was considered to be appropriate because the oxygen reduction reaction, which is an indication of corrosion, was sequestered or stopped. Solutions of known concentration (e.g., containing 10 ppm inhibitor) were used to compared inhibitors. Inhibitor efficiency (IE), is calculated using Equation 1 (IE corrects for contributions not attributable to the inhibitor (e.g., electrolyte)).
Inhibitor Efficiency=(iinhibitor−iblank)/iblank (Equation 1)
Performance of different inhibitors (10 ppm solutions) was evaluated by measuring current value (A) at −800 mV and determining inhibitor efficiency, the results of which are shown in Table 5.
A 5% (wt/wt) sodium chloride solution (that is, electrolyte system A of Table 7) was selected to simulate a highly corrosive environment and potentially accelerate the corrosion. The electrolyte was buffered to eliminate changes in pH from effecting inhibitor performance measurements. A pH of 7 was selected because it was similar to seawater.
The 5% (wt/wt) (0.9 M) sodium chloride electrolyte solution was generated by adding reagent grade sodium chloride to <18 M·cm resistivity to deionized water (52.6 gm NaCl to 1 liter water). The solution was then buffered to neutral pH 7 with phosphate buffered saline tablets from Sigma Aldrich-(P4417-100TAB), 1 tablet per 200 ml of solution Inhibitors were dissolved in an 5% sodium chloride electrolyte buffered with phosphate buffered saline to maintain the pH at 7. Ten parts per million (10 ppm) solutions were generated by taking an aliquot of solutions with a higher known inhibitor concentration and diluting to make a 10 ppm solution. In most cases the higher concentration target was 50 ppm. The initial solutions were generated by adding 0.050 gm of inhibitor in a 5% NaCl buffered electrolyte in a one liter volumetric flask. Not all of the inhibitor dissolved, so the solution was filtered to calculate the solubility and the actual concentration. The solutions were stirred overnight with a stir bar and then filtered using a pre-weighed, 4.7 cm diameter, 1.0 micron pore size glass fiber filters (Whatman Grade GF/B 1821-047) and a Millipore glass filter funnel. The glass filter and clamp funnel was an improvement to previous filter methods that utilized a Buchner funnel and paper filters. After the filtrate was collected, the funnel and filter paper were rinsed thoroughly with deionized water to ensure that no electrolyte salts were trapped in the filter and that residual solids on the sides of the filter funnel were collected. The filter with solids was dried over night in an approximately 120° C. oven, allowed to come to room temperature in a desiccator, and weighed. The actual solution concentration was calculated based on the actual inhibitor dissolved. Concentration calculations also accounted for residual salts that are sometimes still present in the filter. These were measured by running a blank. An aliquot was taken of the 50 ppm solution and a final 10 ppm solution generated. […]

| Compound | Current (A) @ −800 mV | IE (inhibitor efficiency, Equation 1) |
| --- | --- | --- |
| [Al:2,5-dimercapto-1,3,4-thiadiazole (3:1)] [3:1 AlDMcT] | −2.59 × 10^−4 A | 0.49 |
| Sc1nsc(S)n1 [1,2,4 DMcT, 1,2,4-Thiadiazole-3,5-dithiol] | −1.53 × 10^−4 A | 0.70 |
| Sc1nnc([S][Al]([S]c2nnc(S)s2)[S]c2nnc(S)s2)s1 [1:3AlDMcT, [Al:2,5-dimercapto-1,3,4-thiadiazole (1:3)]] | −2.25 × 10^−4 A | 0.55 |
| N1=C2SSc3nnc(s3)SSC(=N1)S2 [BDTD, Bis-[2,5-dithio-1,3,4-thiadiazole]] | −3.00 × 10^−4 A | 0.40 |
| Sc1nnc(SSc2nnc(S)s2)s1 [Vanlube 829, 5,5′-Dithiobis(1,3,4-Thiadiazole-2(3H)-thione)] | −2.68 × 10^−4 A | 0.47 |
| Sc1nnc([S][Al]([S]c2nnc(S)s2)[S]c2nnc(S)s2)s1 [1:3AlDMcT (acid), [Al:2,5-dimercapto-1,3,4-thiadiazole (1:3)] (acid)] | −2.83 × 10^−4 A | 0.44 |
